Reference: article PMC10548421, “Anticancer Potential of Diruthenium Complexes with Bridging Hydrocarbyl Ligands from Bioactive Alkynols” (Inorganic Chemistry, 2023)

Assay: Cyclic voltammetry in CH2Cl2/[N^nBu4]PF6
Format: physicochemical
Conditions: CH2Cl2/[N^nBu4]PF6 0.2 M
Description: Cyclic voltammetry measurements were conducted by using a PalmSens4 instrument connected to a computer operating with the PSTrace5 electrochemical software. Prior to use, anhydrous CH2Cl2 (Merck) was stored under argon over 3 Å molecular sieves. Both [N^nBu4]PF6 (electrochemical grade) and FeCp2, obtained from Fluka, were utilized without requiring additional purification. Cyclic voltammetries were carried out under argon by utilizing a 0.2 M solution of [N^nBu4]PF6 in CH2Cl2 as the supporting electrolyte. The working electrode and the counter electrode were comprised of a platinum disk and a platinum gauze, respectively, both enclosed within a glass tube. A leakage-free miniature electrode of Ag/AgCl/KCl (from eDAQ) was employed as a reference. The three-electrode designed cell was subjected to predrying via vacuum heating and then filled with argon gas. The Schlenk-type design of the cell was effective in upholding both anhydrous and anaerobic conditions. Subsequently, a solution of supporting electrolyte, prepared under argon, was introduced into the cell, and the CV of the solvent was acquired. Afterward, the analyte was introduced, and voltammograms were recorded. Under the selected experimental conditions, the one-electron oxidation of ferrocene occurred at a standard potential of E° = +0.45 V relative to Ag/AgCl/KCl.

[1] = vs Ag/AgCl/KCl, peak potential of irreversible process

Compound: F[B-](F)(F)F.O=[C]=[Ru+]1([CH]2C=CC=C2)[C](=O)[Ru]1(=[C]=O)([CH]=C=C1CCCC1)[CH]1C=CC=C1 (stereo not shown) [3a, [Ru2Cp2(CO)3{μ–η^1:η^2-CH=C=(cyclopentylidene)}]BF4]
- Formal electrode potential, oxidation [1]: +1.61 V
- Formal electrode potential, reduction [1]: –1.00 V
- Formal electrode potential, oxidation (vs FeCp2 (in parentheses)): +1.15 V
- Formal electrode potential, reduction (vs FeCp2 (in parentheses)): −1.46 V
